Reference: a melting point compilation (Tetko et al.; mined from patent text by program, amines drawn as free bases though some values may be those of a salt)

SMILES	melting point
COc1ccc(S(=O)(=O)n2ccc3ccnc(-c4ccccc4)c32)cc1	149 to 151 °C
N#CC(C(N)=O)c1ccc(F)c(Cl)c1 (stereo unspecified)	156 to 157 °C
N=C(NN=Cc1ccc(OC(F)(F)C(F)F)cc1)NN=Cc1ccc(C(F)(F)F)cc1	132 to 137 °C
Cc1nc(NCC(C)C)nc(N2CCc3ccccc3C2C)c1C (stereo unspecified)	93 to 95 °C
CC(=O)NCc1ccc2c(c1)N(C1CCN(CCCc3ccc(F)cc3)CC1)CC2	128 to 130 °C
COCCn1c(C)nc2c(N)nc3ccccc3c21	230 to 233 °C
CN1C(=O)[C@H](NC(=O)COc2ccccc2)N=C(c2ccccc2)c2ccccc21	126 to 128 °C
CS(=O)(=O)c1ccc(-n2nc(C(F)(F)F)cc2-c2nc3ccc(F)cc3s2)cc1	194 to 196 °C
O=C(c1cccnc1)c1ccc([N+](=O)[O-])c(CO)c1	184 °C
CCOC(=O)C(=CNc1ccc2c(c1)N1CCN=C1S2)C(=O)OCC	140 °C
CCC(C)(C)Nc1c(N(Cc2ccc(C#N)cc2Cl)C(C)=O)c(=O)c1=O	150 to 151 °C
CCOC(=O)c1cnn(-c2c(Cl)cc(C(F)(F)F)cc2Cl)c1N	131 to 134 °C
CC(C)CCNC(=O)c1ccc(-c2nn(Cc3cccc(Cl)c3)c(=S)[nH]2)cc1	218 to 220 °C
CC(C)N1CCN(CCN2CCC(c3noc4cc(F)ccc34)CC2)C1=O	121 to 123 °C
CCOC(=O)C1CCn2c1cc(C)c2C(=O)c1ccc2n1CCS2 (stereo unspecified)	146 to 148 °C
CCCN(CCC)C1Cc2cccc3c2N(C1)C(=O)CN3 (stereo unspecified)	97 to 99 °C
O=C1Nc2ccccc2CCCC1N1C(=O)c2ccccc2C1=O (stereo unspecified)	229 to 230 °C
CCC(C)(C)Nc1c(NCc2cc(Cl)ccc2Cl)c(=O)c1=O	195 to 196 °C
Cc1cc(=O)n2c3c(cc(C(O)(C(F)(F)F)C(F)(F)F)cc13)CCCC2	169 to 171 °C
CN(C)c1cc2c(C(F)(F)F)cccc2s1	70 to 73 °C
CC(C)(CNC(=O)c1cc2cccc(NS(=O)(=O)c3cccs3)c2[nH]1)SCc1ccccc1	170 to 171 °C
COc1ccc(C=CC(=O)CC(=O)C=Cc2ccc(OC)c(OC)c2)cc1OC	129 to 131 °C
Cc1cc(SC(C)C)c(NC(=O)CCCCSc2nc3ccccc3o2)c(SC(C)C)n1	129 to 130 °C
COc1cccc(CSc2nnc(-c3ccc4c(c3)CCO4)o2)c1	91 to 93 °C

SMILES	melting point
CS(=O)(=O)c1ccc(-c2ccc3cnc(Nc4ccc(C5CCN(CC(N)=O)CC5)cc4)nn23)cc1	310 °C
CC(=O)OC1CCC2(C)C(CCC3C2CC(OC(C)=O)C2(C)C(C(C)CCC=O)CCC32)C1 (stereo unspecified)	145 °C
COc1ccc2c3c(ccc2c1)CC(=O)C3	138 to 140 °C
COCCOc1ccc(CCCOC(=O)NS(=O)(=O)NCCc2cccs2)c(Oc2ncc(C(F)(F)F)cc2Cl)c1	118 °C
CC(=O)c1ccc(-c2ncc[nH]2)cc1	213 to 216 °C
C[C@@H](N1CCN(C(=S)Nc2ccccc2)CC1)[C@](O)(Cn1cncn1)c1ccc(F)cc1F	106 to 108 °C
CC(=O)c1cc2c(Cl)cccc2s1	113 to 115 °C
COc1cc(O)ccc1/C=C/C(=O)CC(=O)/C=C/c1cc(OCc2ccccc2)ccc1-c1ccccc1	175 to 180 °C
Cc1ccc(N2C(=O)NC(=O)C23CCN(C(=O)c2ccccc2)CC3)cc1	242 to 244 °C
Cc1cc2nncn2nc1-c1ccccc1	188 to 190 °C
COC(=O)CCC(=O)c1ccc2c(c1)CC(CCNC(C)=O)C2 (stereo unspecified)	96 to 97 °C
CS(=O)(=O)Nc1cc2occ(NC=O)c(=O)c2cc1Oc1ccccc1	236 to 238 °C
COc1c(CN2CCOCC2)cccc1-c1nc2c(N[C@H]3[C@@H](C(N)=O)[C@@H]4C=C[C@H]3C4)c(Cl)cnc2[nH]1	133 to 137 °C
COc1ccc(-c2nc(Sc3ccc(Cl)cc3)[nH]c2-c2ccc(OC)cc2)cc1	121 to 122 °C
COC(=O)c1ccc2[nH]c3ccccc3c2c1	180 to 181 °C
COC(=O)C(CCC#N)(CCC#N)C(=O)OC	143 °C
CCOC(=O)C(=Cc1cscc1OC)N=[N+]=[N-]	88 to 90 °C
Cc1nnc(N2CCC(N3c4ccccc4N(C)S3(=O)=O)CC2)n1-c1ccc(Cl)cc1	210 to 212 °C
O=C(Nc1ccc(-n2nc(C(F)(F)F)cc2C(F)(F)F)cc1)c1ccc(F)cc1Cl	155 to 157 °C
CCCCCCCCCCCCCCCCOC(=O)Nc1ccc(NC(=O)NS(=O)(=O)c2ccc3ccccc3c2)cc1	183 °C
COc1cc(C2=NC(C)(C)CO2)cc(OC)c1SC	82.5 to 84.5 °C
COc1ccc2[nH]c(-c3cccc(C)c3)cc(=O)c2c1	262 to 264 °C
O=C1CC(Cc2ccc(Cl)cc2Cl)CN1 (stereo unspecified)	85 to 86 °C
O=C1CCCN1c1ccc(F)cc1F	95 to 97 °C

SMILES	melting point
COc1cc(C2C3=C(COC3=O)Nc3ccc4ncsc4c32)cc(OC)c1OC (stereo unspecified)	309 to 310 °C
NC(c1ccc2c(c1)OCO2)P(O)O (stereo unspecified)	235 to 236 °C
Cc1cc2cc(CN3CCCCCC3)cnc2cc1NC(=O)c1ccc(-c2ccc(F)cc2)cc1F	170 °C
C=NOC(c1ccc(C(=O)O)cc1)c1c(C)nn(C)c1Oc1ccccc1 (stereo unspecified)	183 °C
O=C(C1CCCCC1)N(CCN1CCN(CC(O)c2ccccc2)CC1)c1ccccn1 (stereo unspecified)	140 to 142 °C
OC1(c2cc3ccccc3s2)CCN(CCC2COc3ccccc3O2)CC1 (stereo unspecified)	175 to 178 °C
Oc1cnccc1CCCOc1cccnc1Oc1cccc(Br)c1	116 to 118 °C
CCC(CO)Nc1nc(C)nc2c(C)nn(C)c12 (stereo unspecified)	165 to 168 °C
COC(=O)c1cc2cc(OCCn3ccnc3)ccc2s1	127 to 129 °C
CN(c1cccc2cc(C3=NCC(CC(C)(C)O)S3)[nH]c12)S(=O)(=O)c1cccs1 (stereo unspecified)	156 to 158 °C
Cc1ccc(Cl)c(-c2nn(C(C)(C)C(=O)N(C)C)cc2C)c1	106 to 108 °C
O=C1N(Cc2ncon2)c2ccccc2C12COc1cc3c(cc12)OCO3 (stereo unspecified)	160 to 162 °C
NC(=O)c1ccccc1N1CCN(CC[C@H]2OCCc3ccccc32)CC1	157 to 158 °C
CC1COc2c(N3CC(N)C(C(F)F)C3)c(F)cc3c(=O)c(C(=O)O)cn1c23 (stereo unspecified)	247 to 252 °C
CC(CO)(CO)NS(=O)(=O)c1cccc(C#Cc2cnn3c(C(F)F)cc(-c4ccc(C(F)(F)F)cc4)nc23)c1	172 to 174 °C
Cc1cccc2c(=O)nc(-c3cccc(C(=O)O)n3)sc12	260 to 261 °C
COC(=O)C1CCC2C3CCC4CC(O)C(OC)CC4(C)C3C(N)CC12C (stereo unspecified)	177 to 184 °C
CCC(=O)N(CC)c1cccc(-c2ccnc3c(C(=O)c4ccco4)cnn23)c1	165 to 167 °C
CC1(C)C2CC[C@@]1(N1CCOCC1)C(=O)C2	89.5 to 90.5 °C
C/C(=C(\C#N)C(N)=S)N1CCCN(c2ccccn2)CC1	155 to 157 °C
O=C1C=C(O)C(Cc2ccc(Br)cc2)S1 (stereo unspecified)	156 to 157 °C
COC(=O)c1cc(-c2ccc3c(c2)c2cc(-c4ccc(Cl)cc4Cl)c(=O)n(C)c2n3C)[nH]n1	290 to 292 °C
CCCc1c[nH]nc1OCCCc1cn(-c2ccc(C(F)(F)F)cn2)nc1CCC	127 to 128 °C
